Experimental data taken from article PMC8694140, “Synthesis and photobiological applications of naphthalimide–benzothiazole conjugates: cytotoxicity and topoisomerase IIα inhibition” (RSC Advances, 2021).

How the values were obtained:
[1] = test system: MCF7 (breast) human cancer cell line; experiment: MTT cytotoxicity assay, MCF7; assay type: cell-based; details: Homo sapiens, MCF7, 48 h
Description: (§1) Human malignant cell lines, i.e., MCF7 (breast), HeLa (cervix), and A549 (lung), as well as non-cancerous human cell line Hek293 (kidney), were cultured using the Ham's media or DMEM having 10% FBS, […] streptomycin, 100 U ml^−1 penicillin, and 50 mM glutamine. For seeding of cells, 96 well plates were used, maintaining the density of […] cells per well with the help of DMEM as a media having 10% FBS cells. Then, seeded cells were incubated in an incubator having a 5% CO2 supply at 37 °C. Compounds were added to the wells at 1, 10, and 100 μM concentrations, and cells were incubated for 48 h at 37 °C and then added 10 μl of MTT to each well prepared from 5 mg ml^−1 stock solution using 1 × PBS buffer and were incubated for 4 h at 37 °C in the dark. DMSO (100 μl) was used to dissolve the formazan crystals. To determine the concentration of formazan, the crystal absorbance difference was recorded at 570 nm. The percentage of relative cell toxicity was calculated by using the following eqn (1):1 [drawing 1]

[2] = biological target: T1, human serum albumin (HSA) (Homo sapiens, UniProt P02768); experiment: Synchronous fluorescence spectroscopy of HSA; assay type: binding; details: Δλ = 15 nm, tyrosine residue
T1 sequence (P02768 25-609): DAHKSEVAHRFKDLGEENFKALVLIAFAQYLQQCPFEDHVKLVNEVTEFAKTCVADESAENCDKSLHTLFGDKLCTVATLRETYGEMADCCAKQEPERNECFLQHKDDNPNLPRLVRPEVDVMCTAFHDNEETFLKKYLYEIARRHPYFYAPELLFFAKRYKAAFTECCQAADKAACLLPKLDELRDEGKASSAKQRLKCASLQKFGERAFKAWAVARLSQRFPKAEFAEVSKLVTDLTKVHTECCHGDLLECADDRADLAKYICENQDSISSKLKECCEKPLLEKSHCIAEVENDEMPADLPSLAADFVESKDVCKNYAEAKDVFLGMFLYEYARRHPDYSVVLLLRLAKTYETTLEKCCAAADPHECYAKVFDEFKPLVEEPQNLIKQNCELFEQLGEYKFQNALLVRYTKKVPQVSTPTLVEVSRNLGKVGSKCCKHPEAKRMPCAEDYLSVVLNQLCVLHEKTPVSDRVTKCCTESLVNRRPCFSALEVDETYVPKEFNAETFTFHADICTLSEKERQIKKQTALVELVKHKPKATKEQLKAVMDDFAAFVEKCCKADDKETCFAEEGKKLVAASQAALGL
From the text: Synchronous fluorescence spectroscopy (SFS) is commonly used to evaluate the effect of ligand binding on the microenvironment of protein and its amino acids. It is usually observed that a change in polarity of the chromophore of protein causes deviation in the excitation wavelength of a particular amino acid residue.[48,49] This deviation can provide information about the change in confirmation of HSA on the binding of ligand. The SFS of HSA was noted using a fixed difference in wavelengths (Δλ) of 15 nm and 60 nm of synchronized recording of excitation and emission monochromators, which are characteristics of tyrosine and tryptophan amino acid residues, respectively.[50,51] […] The addition of compounds 12 and 13 produced a slight blue shift of about 4 nm at Δλ = 15 nm, corresponding to a tyrosine residue.
The synchronous fluorescence experiment of HSA was performed at a fixed amount of HSA and increasing concentrations of compounds 12 and 13. The spectra were recorded by taking the difference between the wavelengths of excitation and emission (Δλ = λemi − λexc) at 15 nm and 60 nm.

[3] = test system: HeLa (cervix) human cancer cell line; experiment: MTT cytotoxicity assay, HeLa; assay type: cell-based; details: Homo sapiens, 48 h
Description: as §1

[4] = biological target: T1, human serum albumin (HSA); experiment: Energy transfer (FRET) between HSA and compounds; assay type: binding; details: compound acceptor; for E (efficiency of energy transfer) / R0 (critical distance, 50% efficiency of energy transfer): HSA donor
From the text: Eqn (8)–(10) are used to calculate the values of overlap integral of an emission spectrum of donor with the absorption spectrum of the acceptor (J), the critical distance (50% efficiency of energy transfer, R0), efficiency of energy transfer (E), and the distance among donor and acceptor (r). […] The calculated distance between donor and acceptor for compounds 12 and 13 was found less than 8 nm, and both compounds follow 0.5R0 < r < 1.5R0.
The energy transfer study was accomplished by recording the HSA emission spectrum at 280 nm excitation wavelength and the absorption spectra of compounds 12 and 13.
The following eqn (8)–(10) were used to determine the donor to acceptor energy transfer (E), the critical distance required for energy transfer by 50% (R0), overlap integral of the emission spectrum of donor with the absorption spectrum of the acceptor (J), and distance among the donor and the acceptor (r):[39,57]8 [drawing 6] In this equation, F0 and F denote the emission intensities of HSA in free form and the presence of compounds 12 and 13, respectively.9 R0^6 = 8.8 × 10^−25k^2η^−4ϕJwhere k^2, η, ϕ denote the orientation factor of dipoles, refracted index for used medium, and fluorescence quantum yield of the donor.10 [drawing 7] In this equation, F(λ) denotes the emission intensity for the free form of the donor at the wavelength λ, whereas ε(λ) denotes the molar absorption coefficient of acceptor at the wavelength λ.

[5] = biological target: T1, human serum albumin (HSA); experiment: UV-vis absorption titration of HSA (Benesi–Hildebrand); assay type: binding; details: HSA 10 μM; for enhancement in absorbance of HSA at 280 nm: compound up to 7 μM; for Kd: UV-vis, phosphate buffer pH 7.4, 298 K, read-out: binding constant compound–HSA (Benesi–Hildebrand) (converted)
Description: To check the interactions between HSA and compounds, UV-vis absorption spectra of HSA (10 μM) were recorded in the absence and incremental additions of compounds 12 and 13 (7 μM). Noteworthy, enhancement in absorbance of HSA at 280 nm (57% for compound 12 and 51% for compound 13) on increasing concentrations of compounds indicated perturbations in the microenvironment of protein's chromophores as a result of interaction between HSA and compounds along with the development of new band at 348 nm (Fig. 4). Increasing the concentration of compounds also produces an enhancement in absorbance value at 348 nm. The binding constants for the compound–HSA system were calculated by Benesi–Hildebrand eqn (2)[32] as 1.75 × 10^5 M^−1 for compound 12 and 1.88 × 10^5 M^−1 for compound 13 (Fig. S57 ^†). These strong binding affinities are favorable for the adequate transportation of these compounds to their target sites.
To record the absorption spectra of HSA, a fixed amount of HSA (10 μM) was titrated with the increasing concentrations of compounds 12 and 13 (7 μM) in the phosphate buffer of pH 7.4 at 298 K. The phosphate buffer was used as a blank solution for baseline corrections. The absorption spectra were recorded in the range of 200–800 nm. […] To calculate the Kb value, the ratio of intercept to the slope was used as A0/(A − A0) versus 1/[compound] plots.

| SMILES | IC50 [1] [µM] | blue shift of synchronous fluorescence of HSA [2] | IC50 [3] [µM] | E (efficiency of energy transfer) [4] | R0 (critical distance, 50% efficiency of energy transfer) [4] [nm] | J (overlap integral of donor emission with acceptor absorption) [4] | r (distance among donor and acceptor) [4] [nm] | melting point [°C] | enhancement in absorbance of HSA at 280 nm [5] [%] | Kd [5] [µM] |
| --- | --- | --- | --- | --- | --- | --- | --- | --- | --- | --- |
| C=CCn1cc(-c2nc3ccccc3s2)c2cc(-c3ccc4c5c(cccc35)C(=O)N(CCO)C4=O)ccc21 [Compound 12, 6-(1-Allyl-3-(benzo[d]thiazol-2-yl)-1H-indol-5-yl)-2-(2-hydroxyethyl)-1H-benzo[de]isoquinoline-1,3(2H)-dione] | 3.81 ± 0.19 | about 4 nm | 3.76 ± 0.2 | 0.92 | 0.592 | 1.04 × 10^−18 cm^3 L mol^−1 | 0.393 | 292 to 295 | 57 | 5.71 |
| C#CCN1C(=O)c2cccc3c(-c4ccc5c(c4)c(-c4nc6ccccc6s4)cn5CC=C)ccc(c23)C1=O [Compound 13, 6-(1-Allyl-3-(benzo[d]thiazol-2-yl)-1H-indol-5-yl)-2-(prop-2-yn-1-yl)-1H-benzo[de]isoquinoline-1,3(2H)-dione] | 3.49 ± 0.12 | about 4 nm | 3.64 ± 0.19 | 0.93 | 0.591 | 1.039 × 10^−18 cm^3 L mol^−1 | 0.377 | 282 to 285 | 51 | 5.32 |
